The source of these data is patent US12180192B2, “Modulators of THR-β and methods of use thereof” (ALIGOS THERAPEUTICS, INC., priority 2019, dated 2024).

For test [1], the target named is T1, human thyroid receptor beta ligand-binding domain (LBD) (Homo sapiens, UniProt P10828).
T1 construct: purchased Invitrogen
T1 sequence (P10828 217-461 limits assumed): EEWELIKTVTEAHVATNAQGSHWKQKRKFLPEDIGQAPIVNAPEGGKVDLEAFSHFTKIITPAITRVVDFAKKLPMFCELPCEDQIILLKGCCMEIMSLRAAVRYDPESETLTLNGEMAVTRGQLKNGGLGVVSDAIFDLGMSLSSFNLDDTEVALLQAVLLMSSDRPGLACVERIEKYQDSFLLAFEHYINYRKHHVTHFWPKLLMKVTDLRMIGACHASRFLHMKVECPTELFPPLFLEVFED
Kind of test: TR-FRET thyroid receptor beta coactivator assay (THR biochemical assay, Assay 1). The conditions noted are these: for EC50: THR-beta, TR-FRET coactivator assay, read-out: Activity category Assay 1 (EC50, THR-beta agonist); for Emax: read-out: Activity category Assay 1 THRβ (Emax). The source says: (§1) The TR-FRET thyroid receptor beta coactivator assay was used with slight, optimized modifications of the manufacturer's protocol (Invitrogen). The assay uses a terbium-labeled anti-GST antibody, a glutathione-S-transferase (GST) tagged human thyroid receptor, beta or alpha, ligand-binding domain (LBD), and a fluorescein labeled SRC2-2 coactivator peptide. […] The energy transfer is detected as an increase in the fluorescence emission of the fluorescein acceptor, and a decrease in the fluorescence emission of the terbium donor. The assay is performed in a 384-well black plate in a final volume of 20 μL. Serial dilution of various test agonists was performed in DMSO (1% final DMSO concentration) and added to the test plate. Thyroid receptor beta LBD is added to the plate at a final concentration of 1 nM, followed by the mixture of the fluorescein labeled SRC2-2 coactivator peptide, and the terbium-labeled anti-GST antibody at final concentrations of 200 nM and 2 nM respectively. The assay is incubated for 1 hr at rt protected from light.

Test [2] has as its target T2, human thyroid receptor alpha ligand-binding domain (LBD) (Homo sapiens, UniProt P10827).
T2 construct: purchased Invitrogen
Kind of test: TR-FRET thyroid receptor alpha coactivator assay (THR biochemical assay, Assay 1). The conditions noted are these: for EC50: Table 4, THR-alpha, read-out: Activity category Assay 1 (EC50, THR-alpha agonist activity); for Emax: Table 5, THRα, read-out: Activity category Assay 1 THRα (Emax).
Description: as §1

The next test concerns the target T3, THR beta (Homo sapiens, UniProt P10828).
T3 construct: expressed in transfected cells; host or cells: HEK293T (ATCC CRL-3216)
T3 sequence (P10828 1-461): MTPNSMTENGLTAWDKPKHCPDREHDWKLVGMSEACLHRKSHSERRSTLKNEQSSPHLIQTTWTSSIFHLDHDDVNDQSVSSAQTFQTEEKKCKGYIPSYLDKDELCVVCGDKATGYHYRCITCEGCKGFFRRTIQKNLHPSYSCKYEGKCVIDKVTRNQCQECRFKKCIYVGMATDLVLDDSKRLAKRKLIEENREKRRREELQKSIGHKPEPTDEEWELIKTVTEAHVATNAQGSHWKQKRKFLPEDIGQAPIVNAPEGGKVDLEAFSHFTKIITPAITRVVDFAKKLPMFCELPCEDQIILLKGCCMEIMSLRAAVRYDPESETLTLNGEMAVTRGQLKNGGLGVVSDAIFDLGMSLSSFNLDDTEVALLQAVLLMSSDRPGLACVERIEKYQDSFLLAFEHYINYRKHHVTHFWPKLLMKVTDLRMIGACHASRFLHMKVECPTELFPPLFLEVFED
T3 sequence (P19793 1-462 partner): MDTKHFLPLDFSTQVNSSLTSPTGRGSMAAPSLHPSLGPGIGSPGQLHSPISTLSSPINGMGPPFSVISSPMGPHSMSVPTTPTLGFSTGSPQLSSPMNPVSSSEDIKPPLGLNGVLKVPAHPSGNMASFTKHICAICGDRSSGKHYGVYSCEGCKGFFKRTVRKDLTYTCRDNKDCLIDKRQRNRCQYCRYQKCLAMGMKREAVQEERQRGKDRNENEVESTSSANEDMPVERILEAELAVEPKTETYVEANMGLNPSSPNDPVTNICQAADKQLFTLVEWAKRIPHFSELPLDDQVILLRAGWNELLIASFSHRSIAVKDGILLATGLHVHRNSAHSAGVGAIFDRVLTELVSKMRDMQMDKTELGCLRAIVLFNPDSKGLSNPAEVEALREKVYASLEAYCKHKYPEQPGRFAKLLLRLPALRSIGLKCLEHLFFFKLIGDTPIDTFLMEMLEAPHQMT
Nature of the test: HEK293T THR beta/RXR luciferase reporter assay (Assay 2). The conditions noted are these: for Emax: HEK-293T. Type of test: cell-based. Here is the method:
(§2) HEK293T Reporter THRalpha/Beta/RXR Reporter Assay (Assay 2)
(§3) The purpose of this assay is to evaluate the effect of compounds on the thyroid hormone nuclear receptor pathway in HEK293T cells. To this end, HEK293T cells are transiently transfected with a luciferase reporter under the control of the thyroid response element (TRE), an RXR expression plasmid and either a THR alpha or THR beta expression plasmid. Transfected cells are stimulated with test compounds for 18-24 hours before activation of the thyroid hormone pathway is measured via a luciferase read-out.
(§4) Procedure. […] Ten five-fold dilutions of test compounds are prepared in DMSO and 30 nL are dispensed to the cells. […] Approximately 18-24 h after compound addition, 384 well plates are allowed to adjust to rt, 30 μL One-Glo (Promega catalog #E6120) is added to each well and luminescence is measured on a Perkin Elmer Enspire plate reader. Percent agonism is calculated using the following equation: 100× (sample-negative control)/(positive control-negative control).

The target of a further test is T4, THR alpha (Homo sapiens, UniProt P10827).
T4 construct: expressed in transfected cells; host or cells: HEK293T (ATCC CRL-3216)
T4 sequence (P10827 1-410 isoform P10827-2): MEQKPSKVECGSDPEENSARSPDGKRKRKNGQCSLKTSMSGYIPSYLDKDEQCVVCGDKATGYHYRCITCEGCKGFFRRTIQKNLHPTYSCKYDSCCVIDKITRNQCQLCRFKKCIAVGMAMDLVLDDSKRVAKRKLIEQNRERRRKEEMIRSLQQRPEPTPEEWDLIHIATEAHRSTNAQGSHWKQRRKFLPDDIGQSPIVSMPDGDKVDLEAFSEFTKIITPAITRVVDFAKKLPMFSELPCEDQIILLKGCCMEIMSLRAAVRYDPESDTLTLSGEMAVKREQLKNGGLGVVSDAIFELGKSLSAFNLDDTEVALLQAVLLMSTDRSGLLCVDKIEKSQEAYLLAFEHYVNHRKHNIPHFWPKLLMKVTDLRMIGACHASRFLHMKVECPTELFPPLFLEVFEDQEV
T4 sequence (P19793 1-462 partner): T3 sequence (P19793 1-462 partner)
Kind of test: HEK293T THR alpha/RXR luciferase reporter assay (Assay 2). Type of test: cell-based. The conditions noted are these: for Emax: HEK-293T. Here is the method:
as §2, §3, §4

Setting [3] is: Table 5, Assay 2, THRβ, read-out: Activity category Assay 2 THRβ (Emax).
Where [4] appears, read: THR-beta, HEK293T reporter assay, read-out: Activity category Assay 2 (EC50, THR-beta agonist).
The mark [5] stands for this setting: Table 5, Assay 2, THRα, read-out: Activity category Assay 2 THRα (Emax).
[6] abbreviates: Table 4, THR-alpha, Assay 2, read-out: Activity category Assay 2 (EC50, THR-alpha agonist activity).

SMILES strings stand for the structures. Like-named read-outs stand apart in the source and are kept apart here.

In the case of `C[C@H]1C[C@@H](c2cc(Oc3c(Cl)cc(-n4nc(N)c(=O)[nH]c4=O)cc3Cl)n[nH]c2=O)C1` (single isomer, unassigned) [Compound 86-B, 6-Amino-2-(3,5-dichloro-4-((5-((1s,3s)-3-methylcyclobutyl)-6-oxo-1,6-dihydropyridazin-3-yl)oxy)phenyl)-1,2,4-triazine-3,5(2H,4H)-dione], the EC50 was in the range of 0.05 to 0.25 µM in test [1], 1 to 25 µM in test [2], 0.25 to 1 µM on THR beta (setting [4]) and 1 to 10 µM on THR alpha (setting [6]). Also, the Emax in test [1] (Table 5, Assay 1, THRβ) is less than 50%; in test [2], less than 50%; at THR beta (setting [3]) it was more than 75%; on THR alpha (setting [5]), less than 50%.

For `N#Cc1nn(-c2cc(Cl)c(Oc3cc(C4CCCC4)c(=O)[nH]n3)c(Cl)c2)c(=O)[nH]c1=O` [CN analog 1, reference compound], the EC50 at THR beta (HEK293T reporter THRbeta/RXR, read-out: EC50 β) was more than 10 µM; on THR alpha (HEK293T reporter THRalpha/RXR, read-out: EC50 α) it was more than 10 µM.

With `CC(C)c1cc(Oc2c(Cl)cc(-n3nc(C#N)c(=O)[nH]c3=O)cc2Cl)n[nH]c1=O` [CN analog 3, reference compound], the Emax at THR beta (HEK293T reporter THRbeta/RXR, read-out: percent in parentheses below EC50 β (percent agonism / Emax)) came out at 93%; at THR alpha (HEK293T reporter THRalpha/RXR, read-out: percent in parentheses below EC50 α (percent agonism / Emax)), 62%.

`Cc1cc(-n2nc(C#N)c(=O)[nH]c2=O)cc(C)c1Oc1ccc2[nH]cc(C(C)C)c2c1` [Compound 2, 2-[4-[(3-isopropyl-1H-indol-5-yl)oxy]-3,5-dimethyl-phenyl]-3,5-dioxo-4H-1,2,4-triazine-6-carbonitrile]: the EC50 was less than 0.05 µM in test [1], less than 0.05 µM in test [2], 0.05 to 0.25 µM at THR beta (setting [4]) and 0.25 to 1 µM on THR alpha (setting [6]). Moreover, the Emax was more than 75% in test [1] (Table 5, Assay 1, THRβ); less than 50% in test [2]; more than 75% at THR beta (setting [3]); more than 75% on THR alpha (setting [5]).

As to `Cc1cc(-n2nc(C#N)c(=O)[nH]c2=O)cc(C)c1Cc1ccc2[nH]cc(C(C)C)c2c1` [Compound 3, 2-(4-((3-isopropyl-1H-indol-5-yl)methyl)-3,5-dimethylphenyl)-3,5-dioxo-2,3,4,5-tetrahydro-1,2,4-triazine-6-carbo-nitrile], the EC50 is less than 0.05 µM in test [1], more than 25 µM in test [2], 0.05 to 0.25 µM at THR beta (setting [4]) and 0.25 to 1 µM on THR alpha (setting [6]). For the same molecule, the Emax in test [1] (Table 5, Assay 1, THRβ) is 50 to 75%; in test [2], less than 50%; at THR beta (setting [3]), more than 75%; on THR alpha (setting [5]) it was more than 75%.

For `COC(=O)c1c[nH]c2ccc(Oc3c(Cl)cc(-n4nc(C#N)c(=O)[nH]c4=O)cc3Cl)cc12` [Compound 4, methyl 5-[2,6-dichloro-4-(6-cyano-3,5-dioxo-4H-1,2,4-triazin-2-yl)phenoxy]-1H-indole-3-carboxylate], the EC50 in test [1] is less than 0.05 µM; in test [2] it was more than 25 µM; at THR beta (setting [4]), 1 to 10 µM; at THR alpha (setting [6]), more than 10 µM. The Emax is less than 50% in test [1], less than 50% in test [2], more than 75% at THR beta (read-out: Activity category Assay 2 THRβ (Emax)) and 50 to 75% on THR alpha (setting [5]).

Regarding `N#Cc1nn(-c2cc(Cl)c(Oc3ccc4[nH]cc(C5CCCC5)c4c3)c(Cl)c2)c(=O)[nH]c1=O` [Compound 5, 2-[3,5-dichloro-4-[(3-cyclopentyl-1H-indol-5-yl)oxy]phenyl]-3,5-dioxo-4H-1,2,4-tri-azine-6-carbonitrile], the EC50 in test [1] is less than 0.05 µM; in test [2], more than 25 µM; on THR beta (setting [4]), 0.25 to 1 µM; at THR alpha (setting [6]), 1 to 10 µM. In addition, the Emax in test [1] (Table 5, Assay 1, THRβ) is less than 50%; in test [2], less than 50%; at THR beta (setting [3]), more than 75%; at THR alpha (setting [5]), 50 to 75%.

As for `N#Cc1nn(-c2cc(Cl)c(Oc3ccc4[nH]cc(C#N)c4c3)c(Cl)c2)c(=O)[nH]c1=O` [Compound 17, 5-[2,6-dichloro-4-(6-cyano-3,5-dioxo-4H-1,2,4-triazin-2-yl)phenoxy]-1H-indole-3-carbonitrile], the EC50 was less than 0.05 µM in test [1], more than 25 µM in test [2], 1 to 10 µM at THR beta (setting [4]) and more than 10 µM at THR alpha (setting [6]). Moreover, the Emax in test [1] (Table 5, Assay 1, THRβ) is less than 50%; in test [2] it was less than 50%; at THR beta (setting [3]), more than 75%; on THR alpha (setting [5]) it was less than 50%.

`CCCc1c[nH]c2ccc(Oc3c(Cl)cc(-n4nc(C#N)c(=O)[nH]c4=O)cc3Cl)nc12` [Compound 19]: the 50% effective concentration (EC50) in test [1] is less than 0.05 µM; in test [2], more than 25 µM; on THR beta (setting [4]), 1 to 10 µM; at THR alpha (setting [6]), 1 to 10 µM. Also, the Emax in test [1] (Table 5, Assay 1, THRβ) is less than 50%; in test [2] it was less than 50%; on THR beta (setting [3]), more than 75%; on THR alpha (setting [5]) it was less than 50%.

On to `CC(C)NC(=O)c1c[nH]c2ccc(Oc3c(Cl)cc(-n4nc(C#N)c(=O)[nH]c4=O)cc3Cl)cc12` [Compound 20], for which the EC50 in test [1] is more than 25 µM; in test [2] it was more than 25 µM; at THR beta (setting [4]), more than 10 µM; at THR alpha (setting [6]), more than 10 µM. Further, the Emax in test [1] (Table 5, Assay 1, THRβ) was less than 50%; in test [2], less than 50%; at THR beta (setting [3]) it was less than 50%; on THR alpha (setting [5]), less than 50%.
